# From patent US20240365781A1, “SYNERGISTICALLY EFFECTIVE HERBICIDE COMPOSITION COMPRISING PELARGONIC ACID AND FLAZASULFURON” (Belchim Crop Protection NV, priority 2017, published 2024)
# Tests used:
# Test in all cases: post-emergence field trial under rows of vines, 150-200 L water/ha (Examples 6-9)
# Assay type in all cases: in vivo
# Details in all cases: flazasulfuron 40 g/ha
# Stellaria media = tested on: Stellaria media
# Source text: (§1) The expected activity of a given combination of two or three herbicides can be calculated as follows according to a calculation method by Colby (cf. COLBY, S. R.: “Calculating synergistic and antagonistic responses of herbicide combinations”, • Weeds 15, pages 20-22, 1967): • If X=% damage by herbicide (A) at an application rate of m g/ha, • Y=% damage by herbicide (B) at an application rate of n g/ha, • E=the expected damage by herbicides (A) and (B) at application rates of m and n […] and, • then for a combination:
# (§2) Individual compositions comprising pelargonic acid or flazasulfuron are compared with a herbicide composition according to the invention comprising pelargonic acid and flazasulfuron.
# (§3) Herbicidal activity was determined by performing a post-emergence test. […] The corresponding mixture was in the form of a spray solution. Besides, spray solutions of individual compositions comprising pelargonic acid or flazasulfuron were used.
# (§4) The spray solution was applied on plants of unwanted vegetation present on fields where perennial crops were grown.
# (§5) After 5 to 88 days after application of the spray solution, the degree of damage to the unwanted vegetation is rated in % of plants of unwanted vegetation that were killed. Tests were performed on test fields (field trials).
# Bromus oxyodon = tested on: Bromus oxyodon
# Source text: as §1, §2, §3, §4, §5
# Epilobium tetragonum = tested on: Epilobium tetragonum
# Source text: as §1, §2, §3, §4, §5
# [1] = 7 d, pelargonic acid 10880 g/ha
# [2] = 14 d, pelargonic acid 5440 g/ha
# [3] = 14 d, pelargonic acid 6800 g/ha
# [4] = 14 d, pelargonic acid 8160 g/ha
# [5] = 14 d, pelargonic acid 10880 g/ha
# [6] = 28 d, pelargonic acid 5440 g/ha
# [7] = 28 d, pelargonic acid 6800 g/ha
# [8] = 28 d, pelargonic acid 8160 g/ha
# [9] = 28 d, pelargonic acid 10880 g/ha
# [10] = 27 d, pelargonic acid 6800 g/ha
# [11] = 27 d, pelargonic acid 8160 g/ha
# [12] = 27 d, pelargonic acid 10880 g/ha
# [13] = 56 d, pelargonic acid 6800 g/ha
# [14] = 56 d, pelargonic acid 8160 g/ha
# [15] = 56 d, pelargonic acid 10880 g/ha
Structure (SMILES),"herbicidal effect (Stellaria media; 7 d, pelargonic acid 8160 g/ha)",herbicidal effect (Stellaria media; [1]),herbicidal effect (Stellaria media; [2]),herbicidal effect (Stellaria media; [3]),herbicidal effect (Stellaria media; [4]),herbicidal effect (Stellaria media; [5]),herbicidal effect (Stellaria media; [6]),herbicidal effect (Stellaria media; [7]),herbicidal effect (Stellaria media; [8]),herbicidal effect (Stellaria media; [9]),"herbicidal effect (Bromus oxyodon; 7 d, pelargonic acid 5440 g/ha)","herbicidal effect (Bromus oxyodon; 7 d, pelargonic acid 6800 g/ha)","herbicidal effect (Bromus oxyodon; 7 d, pelargonic acid 8160 g/ha)",herbicidal effect (Bromus oxyodon; [1]),herbicidal effect (Bromus oxyodon; [2]),herbicidal effect (Bromus oxyodon; [3]),herbicidal effect (Bromus oxyodon; [4]),herbicidal effect (Bromus oxyodon; [5]),herbicidal effect (Bromus oxyodon; [6]),herbicidal effect (Bromus oxyodon; [7]),other results
"COc1cc(OC)nc(NC(=O)NS(=O)(=O)c2ncccc2C(F)(F)F)n1 [Flazasulfuron, 1-(4,6-dimethoxypyrimidin-2-yl)-3-(3-trifluoromethyl-2-pyridylsulfonyl)urea]",30%,30%,54%,54%,54%,54%,86%,86%,86%,86%,28%,28%,28%,28%,46%,46%,46%,46%,78%,78%,"herbicidal effect (Bromus oxyodon; [8]): 78%; herbicidal effect (Bromus oxyodon; [9]): 78%; herbicidal effect (Epilobium tetragonum; 7 d, pelargonic acid 5440 g/ha): 61%; herbicidal effect (Epilobium tetragonum; 7 d, pelargonic acid 8160 g/ha): 61%; herbicidal effect (Epilobium tetragonum; [1]): 61%; herbicidal effect (Epilobium tetragonum; [3]): 96%; herbicidal effect (Epilobium tetragonum; [4]): 96%; herbicidal effect (Epilobium tetragonum; [5]): 96%; herbicidal effect (Epilobium tetragonum; [10]): 96%; herbicidal effect (Epilobium tetragonum; [11]): 96%; herbicidal effect (Epilobium tetragonum; [12]): 96%; herbicidal effect (Epilobium tetragonum; [13]): 96%; herbicidal effect (Epilobium tetragonum; [14]): 96%; herbicidal effect (Epilobium tetragonum; [15]): 96%"
"CCCCCCCCC(=O)O [Pelargonic acid, nonanoic acid]",49%,54%,69%,75%,66%,80%,80%,84%,86%,93%,10%,11%,15%,18%,11%,16%,20%,23%,8%,11%,"herbicidal effect (Bromus oxyodon; [8]): 16%; herbicidal effect (Bromus oxyodon; [9]): 18%; herbicidal effect (Epilobium tetragonum; 7 d, pelargonic acid 5440 g/ha): 49%; herbicidal effect (Epilobium tetragonum; 7 d, pelargonic acid 8160 g/ha): 56%; herbicidal effect (Epilobium tetragonum; [1]): 73%; herbicidal effect (Epilobium tetragonum; [3]): 0%; herbicidal effect (Epilobium tetragonum; [4]): 8%; herbicidal effect (Epilobium tetragonum; [5]): 13%; herbicidal effect (Epilobium tetragonum; [10]): 0%; herbicidal effect (Epilobium tetragonum; [11]): 0%; herbicidal effect (Epilobium tetragonum; [12]): 0%; herbicidal effect (Epilobium tetragonum; [13]): 0%; herbicidal effect (Epilobium tetragonum; [14]): 0%; herbicidal effect (Epilobium tetragonum; [15]): 0%"
